The values that follow come from ChEMBL document CHEMBL1145469, “Lysostaphin in treatment of neonatal Staphylococcus aureus infection” (Antimicrob Agents Chemother, 2007).

One series has as its system Rattus norvegicus. In words: Drug level in rat serum at 25 mg/kg, im. The format is ADME, organism-based. As to conditions: in vivo. Further details: dose 25 mg/kg, route intramuscular.
For series [1], the system named is Serum. Put plainly: Drug level in Staphylococcus aureus infected Wistar rat pups serum at 50 mg/kg, ip. The format is ADME, organism-based. Set-up: dose 50 mg/kg, route intraperitoneal. The settings on record: in vivo.
In a further series the test system is Staphylococcus aureus. Put plainly: Antibacterial activity against methicillin-sensitive Staphylococcus aureus. In kind it is functional.
A short description of series [2]: Drug level in rat serum at 100 mg/kg, iv after 0.5 hr. In kind it is ADME, organism-based. Further details: dose 100 mg/kg, route intravenous. The settings on record: read-out: Drug uptake.
Series [3] can be described thus: Drug level in rat serum at 100 mg/kg, iv after 2 hrs. In kind it is ADME, organism-based. Further details: dose 100 mg/kg, route intravenous. As to conditions: read-out: Drug uptake.
Series [4] has as its system Serum. In words: Drug level in Staphylococcus aureus infected Wistar rat pups serum at 15 mg/kg, ip. In kind it is ADME, organism-based. Set-up: dose 15 mg/kg, route intraperitoneal. As to conditions: in vivo.
The nature of series [5]: Drug level in rat serum at 30 mg/kg, sc after 1 hr. The format is ADME, organism-based. Further details: dose 30 mg/kg, route subcutaneous. As to conditions: read-out: Drug uptake.

Values after ≈ are worked out from the molar mass of the structure shown.

The molecule `CCOc1ccc2ccccc2c1C(=O)N[C@@H]1C(=O)N2[C@@H]1SC(C)(C)[C@@H]2C(=O)O` [NAFCILLIN] came in with a Drug uptake in the series with Rattus norvegicus of 20.6 µg/mL.

In the series with Serum [1], `Cc1onc(-c2ccccc2)c1C(=O)N[C@@H]1C(=O)N2[C@@H]1SC(C)(C)[C@@H]2C(=O)O` [OXACILLIN] showed a Drug uptake greater than 125 µg/mL. Further, in the series with Staphylococcus aureus, the minimum bactericidal concentration (MBC) amounted to 0.25 mg/L (≈ 0.623 µM) and it took 0.125 mg/L (≈ 0.311 µM) to inhibit growth (MIC).

Regarding `CN[C@H](CC(C)C)C(=O)N[C@H]1C(=O)N[C@@H](CC(N)=O)C(=O)N[C@H]2C(=O)N[C@H]3C(=O)N[C@H](C(=O)N[C@H](C(=O)O)c4cc(O)cc(O)c4-c4cc3ccc4O)[C@H](O)c3ccc(c(Cl)c3)Oc3cc2cc(c3O[C@@H]2O[C@H](CO)[C@@H](O)[C@H](O)[C@H]2O[C@H]2C[C@](C)(N)[C@H](O)[C@H](C)O2)Oc2ccc(cc2Cl)[C@H]1O` [VANCOMYCIN], in series [2], the concentration at 0.5 h was determined as 180 µg/mL. Moreover, in series [3], the concentration at 2 h was 45 µg/mL. The molecule also showed an MBC with Staphylococcus aureus of 0.25 mg/L (≈ 0.173 µM). In the series on Serum [4], this molecule came in with a Drug uptake greater than 125 µg/mL. Moreover, the concentration at 1 h in series [5] was 36 µg/mL.

As usually defined, the MBC is the lowest tested concentration that kills the bacteria rather than only halting them. Lower therefore signals more potent killing. The term MIC denotes the smallest concentration in the dilution series that meets the test's criterion for growth inhibition. Read a high MIC as a less susceptible organism.
